Assays:
Format in all cases: in vivo
[1] = test system: biting midges; assay: Spatial inhibition of biting midges, outdoor trap catch; conditions: 92.5 wt % compound(s) in composition, control trap = 100% catch, lower = more inhibition
Description: Two grams of test compound is absorbed onto pieces of absorbent material. These pieces of absorbent material (fragrance release material from Rhopore Inc.) containing absorbed test compound are then placed in a stream of CO2 and r-octenol being released from a biting midges biting midge trap designed to attract biting midges. The test are rotated over a period of 2-5 days in such a manner that both control (trap without test compound) and test compound are tested an equal number of times in each trap employed. The number of biting midges caught in the traps with test compounds is compared to the number of biting midges caught in the trap with no test compound material present. […] Thus, a lowered percentage is indicative of the increasing ability of the test compounds to inhibit the ability of the biting midges sense the target. In Table 6, weight percent (wt %) refers to the weight of the deterring/repelling/inhibiting compound, or combination of compounds, in the composition used in the tests. In the “Percent Caught Relative to Control” column in Table 6, a lower percentage is indicative of the increasing ability of the test compounds to inhibit the ability of the biting midges to sense the target. The weight ratio of the compounds in the combination of compounds is given in parentheses in the “Compound(s)” column of Table 6.

[2] = test system: female biting midges (Culicoides impunctatus); assay: Biting midges feeding test (Plexiglas module, treated membrane); conditions: 92.5 wt % compound(s) in composition, control = 1.00, lower = more repellent
Description: The following tests are employed to illustrate the efficacy of the compounds of this disclosure to effectively act as biting midge deterrents, repellents or as spatial inhibitors for biting midges. […] Biting midges are tested in a two-piece Plexiglas module designed to assess their response to feeding deterrents. […] Water (40° C.) flows through the central cavity of the platform at a rate of 215 ml/min. The top piece of the module consists of six 4.5×4.0×5.0 cm chambers, the floors of which are fitted with a sliding door positioned over a circular opening 3.5 cm in diameter. Biting midges are introduced through an aperture 1 cm in diameter on the front wall of the chambers. For each test, five female biting midges (Culicoides impunctatus) are aspirated into each of five chambers of the top module piece and the apertures are plugged with corks wrapped in plastic film. […] To each well, 77.5 μl of green dye (McCormick Food, Hunt Valley, Md.) are added so that those biting midges imbibing the sugar solution can be identified when crushed at the end of the tests. Each membrane receives 50 μl of acetone or experimental compound solution, applied to 9.6 cm^2 circular area on 0.1 mm-thick membranes made of nylon mesh in a silicone matrix. The membranes are then placed over each well in contact with the sugar solution. The circular openings on the floor of each chamber of the top piece of the module are aligned with each membrane-covered well of the bottom piece. The sliding floors of the chambers are then opened allowing biting midges access to the membranes. The number of biting midges landing on the membranes, and those flying within the apparatus, are recorded each minute for five minutes. After five minutes, any biting midges remaining on the membranes are removed with a metal wire, and the door of the floor of each chamber is closed. The top piece of the module is then placed into a freezer for 20 minutes. In the test designed to assess feeding, biting midges are removed from the frozen module, crushed on white paper towels, and examined for the presence of green dye to indicate that feeding had occurred. The proportions of biting midges feeding per trial are analyzed using a standard generalized linear model with a logit link. Landing and flying scores are repeated measures; five readings are obtained for groups of five biting midges. Thus, to maintain independence among the data, the five readings are summed, and then the sums divided by 25 (the maximum score in each category) to create proportions of biting midges landing and flying. The proportions are then transferred using the standard variance stabilizing transformation for proportions (sin^−1 √y, where y is the proportion), and analyzed using ANOVA (Analysis of Variables). In Table 4, weight percent (wt %) refers to the weight of the deterring/repelling/inhibiting compound, or combination of compounds, in the composition used in the tests. […] The weight ratio of the compounds in the combination of compounds is given in parentheses in the “Compound(s)” column of Table 4.

[3] = test system: female mosquitoes (Aedes aegypti); assay: Mosquitoes flying test (Plexiglas module, mosquitoes flying within the apparatus)
Description: The test was conducted at 0900-2100 hours in a walk-in incubator (26° C., 63-80% RH) illuminated by fluorescent lights. Mosquitoes were tested in a two-piece Plexiglas module designed to assess their response to feeding deterrents. The bottom piece of the module was 40×7×4-cm hollow platform supporting six circular wells (diameter=3.8 cm, depth=6 mm). Water (40° C.) flowed through the central cavity of the platform at a rate of 215 ml/min. The top piece of the module consisted of six 4.5×4.0×5.0 cm chambers, the floors of which were fitted with a sliding door positioned over a circular opening 3.5 cm in diameter. Mosquitoes were introduced through an aperture 1 cm in diameter on the front wall of the chambers. For each test, five female mosquitoes (Aedes aegypti) were aspirated into each of five chambers of the top module piece and the apertures were plugged with corks wrapped in plastic film. The wells on the bottom piece of the module were filled with 7 ml of 10% sucrose solution containing ATP (2.9 mg/ml). To each well, 75 μl of green dye (McCormick Food, Hunt Valley, Md.) were added so that those mosquitoes imbibing the sugar solution could be identified when crushed at the end of the tests. Each membrane received 50 ul of acetone or experimental compound solution, applied to 9.6 cm^2 circular area on 0.1 mm-thick membranes made of nylon mesh in a silicone matrix. The membranes were then placed over each well in contact with the sugar solution.
The circular openings on the floor of each chamber of the top piece of the module were aligned with each membrane-covered well of the bottom piece. The sliding floors of the chambers were then opened allowing mosquitoes access to the membranes. The number of mosquitoes landing on the membranes, and those flying within the apparatus, were recorded each minute for five minutes. After five minutes, any mosquitoes remaining on the membranes were removed with a metal wire, and the door of the floor of each chamber was closed. The top piece of the module was then placed into a freezer for 20 minutes. In the test designed to assess feeding, mosquitoes were removed from the frozen module, crushed on white paper towels, and examined for the presence of green dye to indicate that feeding had occurred. The proportions of mosquitoes feeding per trial were analyzed using a standard generalized linear model with a logit link. Landing and flying scores are repeated measures; five reading were obtained for groups of five mosquitoes. Thus, to maintain independence among the data, the five readings were summed, and then the sums divided by 25 (the maximum score in each category) to create proportions of mosquitoes landing and flying. The proportions were then transferred using the standard variance stabilizing transformation for proportions (sin^−1 √y, where y is the proportion), and analyzed using ANOVA (Analysis of Variables)
In Table 2, weight percent (wt %) refers to the weight of the deterring/repelling/inhibiting compound, or combination of compounds, in the composition used in the tests. […] The weight ratio of the compounds in the combination of compounds is given in parentheses in the “Compound(s)” column of Table 2.

Structure (SMILES): CC(C)=CCCC(C)CC=O (stereo not shown) [Citronellal]
- Percent Caught Relative To Control [1]: 12%
- Feeding Relative To Control [2]: 0.64
- Flying Relative To Control ([3]; 92.5 wt % compound(s) in composition, control = 1, higher = more inhibitor activity): 1.9
- spatial inhibitor activity for mosquitoes (flying tests, FIGS. 2 and 4), in words ([3]; flying relative to control, FIGS. 2 and 4): particularly effective as spatial inhibitors for mosquitoes

— patent US20210029993A1, “SPATIAL INHIBITORS, DETERRENTS AND REPELLENTS FOR MOSQUITOES AND MIDGES” (BEDOUKIAN RESEARCH, INC., priority 2005, published 2021)
